According to PMC4084896 (PLoS ONE, 2014):
Values after ≈ are worked out from the molar mass of the structure shown.

How the values were obtained:
AhR = biological target: T1, AhR (Mus musculus, UniProt P30561); experiment: EMSA with nuclear extracts from Hepa-1c1c7 cells (AhR-ARNT-DRE complex); format: cell-based; settings: Hepa-1c1c7 nuclear extracts, 50 µM, 2 h
T1 construct: endogenous in cells; host or cells: mouse hepatoma Hepa-1c1c7 cells (living cells treated 2 h, then nuclear extracts made)
Method: Electrophoretic mobility shift assay was performed in guinea pig cytosol and nuclear extract from mouse hepatoma cells. Hepa-1c1c7 cells were incubated for 2 h with tested compounds. Nuclear extracts procedure and EMSA analysis was performed as previously described (Soshilov & Denison; 2014). Guinea pig hepatic cytosol (8 mg/mL in HEDG) was incubated for 2 h in a room temperature water bath with tested compounds. An aliquot of the reaction was mixed with poly[dI•dC] and [^32P]-DRE (100.000 cpm), and AHR:DRE:[^32P]DRE complexes were resolved by gel retardation analysis, visualized by autoradiography and quantified by phosphorimager analysis (FujiFilm) of the dried gels.
We carried out the electrophoretic mobility shift assay (EMSA) to reveal whether effects of KET on AhR-CYP1A pathway involve transformation of AhR to DNA binding form, and whether these effects are enantiospecific. For this purpose, EMSA was performed in two experimental systems: (i) Hepatic guinea pig cytosol was treated for 2 hours with DMSO, 20 nM TCDD, (+)-KET, (−)-KET and commercial rac-KET (from Sigma) at 10 µM, 30 µM and 50 µM. All forms of KET transformed AhR to DNA binding form, but the activation was very weak and not statistically above background. There was a slightly stronger effect of (+)-KET and rac-KET as compared to (−)-KET, but the difference was not significant (Figure 4A). (ii) Since we obtained only weak signals in guinea pig liver cytosols, we also analyzed nuclear extracts from mouse hepatoma Hepa-1c1c7 cells treated for 2 hours with DMSO, TCDD (10 nM), (+)-KET (50 µM), (−)-KET (50 µM), commercial rac-KET (Sigma; 50 µM) or an equimolar mix of (+)/(−) enantiomers (50 µM total). […] The effects of (−)-KET were slightly stronger as compared to (+)-KET. […] In addition, we observed formation of the second band with lower molecular weight than AhR-ARNT-DRE, by purified KET enantiomers but not by TCDD and commercial KET.

[1] = biological target: T2, glucocorticoid receptor (GR) (Homo sapiens, UniProt P04150); experiment: GR gene reporter assay in AZ-GR cells, antagonist mode (DEX 100 nM); format: cell-based; settings: 24 h
T2 sequence (P04150 1-777): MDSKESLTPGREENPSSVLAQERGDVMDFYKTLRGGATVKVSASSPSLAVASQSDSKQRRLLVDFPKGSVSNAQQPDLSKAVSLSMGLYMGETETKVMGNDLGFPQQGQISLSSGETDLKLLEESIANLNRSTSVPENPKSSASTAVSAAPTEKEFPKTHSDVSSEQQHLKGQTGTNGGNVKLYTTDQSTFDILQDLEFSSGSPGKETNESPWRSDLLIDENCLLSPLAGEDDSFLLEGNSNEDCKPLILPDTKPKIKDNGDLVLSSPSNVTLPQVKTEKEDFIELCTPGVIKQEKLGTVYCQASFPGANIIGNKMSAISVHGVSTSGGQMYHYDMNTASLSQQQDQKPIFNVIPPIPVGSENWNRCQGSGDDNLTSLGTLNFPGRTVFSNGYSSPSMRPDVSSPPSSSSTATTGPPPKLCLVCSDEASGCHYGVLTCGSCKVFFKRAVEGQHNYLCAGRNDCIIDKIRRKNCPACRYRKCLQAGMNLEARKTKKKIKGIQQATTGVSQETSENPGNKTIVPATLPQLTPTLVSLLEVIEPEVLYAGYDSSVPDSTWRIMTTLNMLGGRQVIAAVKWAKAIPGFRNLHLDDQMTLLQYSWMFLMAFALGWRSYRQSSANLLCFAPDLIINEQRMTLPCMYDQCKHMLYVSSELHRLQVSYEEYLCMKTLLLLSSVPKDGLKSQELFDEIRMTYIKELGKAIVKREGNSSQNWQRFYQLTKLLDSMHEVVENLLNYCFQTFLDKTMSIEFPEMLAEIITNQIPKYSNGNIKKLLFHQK
From the text: (§1) A stably transfected gene reporter cell line AZ-AHR, derived from human hepatoma HepG2 cells transfected with a construct containing several AhR binding sites upstream of a luciferase reporter gene, was used for assessment of AhR transcriptional activity. A stably transfected gene reporter cell line AZ-GR, derived from human cervix carcinoma HeLa cells transfected with a construct containing several GR response elements upstream of a luciferase reporter gene, was used for assessment of GR transcriptional activity. Cells were incubated for 24 h with tested compounds and/or vehicle (DMSO; 0.1% v/v), in the presence or absence of TCDD (5 nM; AZ-AHR cells) or DEX (100 nM; AZ-GR cells). After the treatments, cells were lysed and luciferase activity was measured. In parallel, cell viability was determined by conventional MTT test.
(§2) There is multiple evidence for the role of glucocorticoid receptor (GR) in regulation of AhR activity. […] Gene reporter assays were performed in agonist and antagonist mode (similarly as described in section 3.1.).

[2] = biological target: T2, glucocorticoid receptor (GR); experiment: GR gene reporter assay in AZ-GR cells, agonist mode; format: cell-based
From the text: as §1, §2

[3] = biological target: T3, aryl hydrocarbon receptor AhR (Homo sapiens, UniProt P35869); experiment: AhR gene reporter assay in AZ-AHR cells, agonist mode; format: cell-based
T3 construct: endogenous in cells; host or cells: AZ-AHR (stably transfected reporter line derived from HepG2)
T3 sequence (P35869 11-848): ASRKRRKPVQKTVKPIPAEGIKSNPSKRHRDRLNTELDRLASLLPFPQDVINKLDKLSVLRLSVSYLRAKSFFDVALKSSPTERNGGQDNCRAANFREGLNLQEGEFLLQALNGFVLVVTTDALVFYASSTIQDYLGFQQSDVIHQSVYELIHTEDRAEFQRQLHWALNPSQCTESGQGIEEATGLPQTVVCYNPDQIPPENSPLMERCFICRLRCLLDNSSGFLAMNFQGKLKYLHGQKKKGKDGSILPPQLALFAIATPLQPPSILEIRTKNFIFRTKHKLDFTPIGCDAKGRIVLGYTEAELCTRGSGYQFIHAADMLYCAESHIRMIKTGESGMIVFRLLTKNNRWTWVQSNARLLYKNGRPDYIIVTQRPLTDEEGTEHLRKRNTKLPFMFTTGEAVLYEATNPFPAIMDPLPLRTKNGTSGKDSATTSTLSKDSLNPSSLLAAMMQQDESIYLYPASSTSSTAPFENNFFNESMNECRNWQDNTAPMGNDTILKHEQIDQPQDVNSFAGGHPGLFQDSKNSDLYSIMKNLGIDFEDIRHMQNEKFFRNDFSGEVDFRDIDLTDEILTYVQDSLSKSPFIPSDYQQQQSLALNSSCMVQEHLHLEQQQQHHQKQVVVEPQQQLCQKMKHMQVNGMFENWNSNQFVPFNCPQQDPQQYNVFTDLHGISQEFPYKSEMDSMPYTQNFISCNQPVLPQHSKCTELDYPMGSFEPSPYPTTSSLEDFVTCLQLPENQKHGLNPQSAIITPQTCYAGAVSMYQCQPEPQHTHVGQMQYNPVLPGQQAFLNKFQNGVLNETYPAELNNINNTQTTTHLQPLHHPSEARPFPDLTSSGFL
From the text: as §1
(§3) Gene reporter assays were performed in two different experimental layouts. In agonist mode, cells were treated with increasing concentrations of tested compounds, and the half-maximal effective concentrations (EC50) were calculated.

[4] = MTT cytotoxicity test in AZ-AHR cells; format: cell-based, human; settings: human; 24 h incubation, six passages; read-out: AZ-AHR viability - MTT IC50
From the text: as §1
Prior to the agonist or antagonist experiments, the cytotoxicity of tested compounds was assessed using the conventional MTT assay. […] The vehicle was DMSO (0.1% v/v). After the treatment, a MTT test was performed.

[5] = system: tyrosine aminotransferase (TAT) mRNA; experiment: TAT mRNA in HepG2 cells (qRT-PCR); format: cell-based, human; settings: HepG2, 1, 30, 50 µM, 24 h
[6] = MTT cytotoxicity test in primary human hepatocytes; format: cell-based; settings: primary human hepatocytes, read-out: viability, % of control value
From the text: as §1
The cells were treated for 24 h with (+)-KET, (−)-KET and commercial rac-KET (1 µM, 30 µM, 50 µM), and with TCDD (5 nM) and vehicle (DMSO; 0.1% V/V). […] In the cytotoxicity assay, we found all forms of KET highly toxic against human hepatocytes at the concentration 50 µM.

AZ-GR cells = experiment: MTT cytotoxicity test in AZ-GR cells; format: cell-based, human; settings: Homo sapiens; 24 h incubation; read-out: AZ-GR viability - MTT IC50
From the text: as §1, §2

[7] = biological target: T3, aryl hydrocarbon receptor AhR; experiment: AhR gene reporter assay in AZ-AHR cells, antagonist mode (TCDD 5 nM); format: cell-based; settings: 24 h, in the presence of TCDD 5 nM
From the text: as §1, §3

C. albicans 1 = experiment: MIC assessment, microdilution; format: cell-based; settings: Candida albicans
Method: (§4) Antifungal activity was assessed using the standard microdilution method determining the minimum inhibitory concentrations (MICs) of the tested samples leading to inhibition of yeast growth. Disposable microtiter plates were used for the tests. The samples were diluted in brain heart infusion broth (HiMedia). […] C. albicans, C. krusei, C. tropicalis and C. parapsilosis. […] Subsequently, 100 µL were transferred into the first microplate well and serially diluted by a factor of 2. The prepared microplates were inoculated with a standard amount of the tested Candida spp. – the inoculum density in a well was equal to 10^5 CFU/mL. […] The minimum fungicidal concentration (MFC) is the minimum concentration of the sample required to kill the yeast after a defined period of incubation. The MFCs were determined by the inoculation method. With an applicator, 10 µL were transferred from the microplate wells with defined concentrations of the tested sample and inoculated onto Sabouraud agar (Trios). The MFC was determined as the lowest concentration that inhibited the visible growth of the used yeast. For growth curve assessment, the samples were serially diluted in 96-well microtiter plates. […] Absorbance (630 nm) was measured every hour during 24 hours and the obtained values were used to plot growth curves

C. albicans 978 = experiment: MIC assessment, microdilution; format: cell-based; settings: Candida albicans
Method: as §4

C. krusei 094 = experiment: MIC assessment, microdilution; format: cell-based; settings: Pichia kudriavzevii
Method: as §4

C. krusei 3 = experiment: MIC assessment, microdilution; format: cell-based; settings: Pichia kudriavzevii
Method: as §4

C. tropicalis 5 = experiment: MIC assessment, microdilution; format: cell-based; settings: Candida tropicalis
Method: as §4

C. parapsilosis 6 = experiment: MIC assessment, microdilution; format: cell-based; settings: Lodderomyces parapsilosis
Method: as §4

T1 sequence (P30561 10-805 limits assumed): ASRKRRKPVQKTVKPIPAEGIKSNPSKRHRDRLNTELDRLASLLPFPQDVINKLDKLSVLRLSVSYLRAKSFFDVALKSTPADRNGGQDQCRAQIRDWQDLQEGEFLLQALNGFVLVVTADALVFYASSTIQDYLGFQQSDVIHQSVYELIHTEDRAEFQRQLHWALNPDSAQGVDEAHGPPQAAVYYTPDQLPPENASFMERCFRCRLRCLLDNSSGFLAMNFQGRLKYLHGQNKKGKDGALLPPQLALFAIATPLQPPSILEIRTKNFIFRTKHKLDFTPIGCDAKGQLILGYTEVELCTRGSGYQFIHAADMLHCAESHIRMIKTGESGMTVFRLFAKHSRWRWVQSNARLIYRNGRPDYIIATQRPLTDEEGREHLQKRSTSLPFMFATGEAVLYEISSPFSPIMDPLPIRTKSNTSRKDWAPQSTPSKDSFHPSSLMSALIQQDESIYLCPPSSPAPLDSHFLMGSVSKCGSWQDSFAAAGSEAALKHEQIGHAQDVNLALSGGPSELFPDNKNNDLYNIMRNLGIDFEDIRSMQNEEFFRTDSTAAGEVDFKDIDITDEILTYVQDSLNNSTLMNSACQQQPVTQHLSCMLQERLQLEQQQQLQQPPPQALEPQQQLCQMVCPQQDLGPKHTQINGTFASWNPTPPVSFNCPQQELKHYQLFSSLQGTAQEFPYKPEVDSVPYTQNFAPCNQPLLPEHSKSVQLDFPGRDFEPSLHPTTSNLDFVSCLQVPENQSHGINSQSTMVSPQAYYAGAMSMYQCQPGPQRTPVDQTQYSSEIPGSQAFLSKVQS
T1 sequence (P53762 whole entry partner): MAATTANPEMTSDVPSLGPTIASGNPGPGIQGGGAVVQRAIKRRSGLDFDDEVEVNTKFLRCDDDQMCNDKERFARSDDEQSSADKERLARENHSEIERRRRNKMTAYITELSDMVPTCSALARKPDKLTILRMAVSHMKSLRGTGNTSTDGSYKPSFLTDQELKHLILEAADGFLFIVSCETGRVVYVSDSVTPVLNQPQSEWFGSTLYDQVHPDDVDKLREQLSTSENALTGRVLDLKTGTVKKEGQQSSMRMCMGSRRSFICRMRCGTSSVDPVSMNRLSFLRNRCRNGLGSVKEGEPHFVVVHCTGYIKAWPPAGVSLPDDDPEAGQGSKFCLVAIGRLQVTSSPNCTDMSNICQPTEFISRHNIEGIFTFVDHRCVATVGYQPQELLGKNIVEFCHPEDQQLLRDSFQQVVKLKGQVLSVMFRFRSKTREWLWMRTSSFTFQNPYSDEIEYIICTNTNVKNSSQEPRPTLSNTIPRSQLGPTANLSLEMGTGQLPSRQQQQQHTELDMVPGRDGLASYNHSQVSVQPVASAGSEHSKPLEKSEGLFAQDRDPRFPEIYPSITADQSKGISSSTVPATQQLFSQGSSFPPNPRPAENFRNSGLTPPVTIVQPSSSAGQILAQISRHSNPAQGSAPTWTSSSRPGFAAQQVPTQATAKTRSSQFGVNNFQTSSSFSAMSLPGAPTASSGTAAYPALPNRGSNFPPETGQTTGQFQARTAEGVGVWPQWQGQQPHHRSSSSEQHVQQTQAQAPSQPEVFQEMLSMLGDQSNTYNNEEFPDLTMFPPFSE

SMILES | transformation of AhR to DNA binding form (in words) (AhR) | MIC (C. albicans 1) | MIC (C. albicans 978) | MIC (C. krusei 094) | MIC (C. krusei 3) | MIC (C. tropicalis 5) | MIC (C. parapsilosis 6) | also measured
CC(=O)N1CCN(c2ccc(OCC3COC(Cn4ccnc4)(c4ccc(Cl)cc4Cl)O3)cc2)CC1 (racemic) [racemic KET obtained by mixing pure (+)-KET and pure (−)-KET in ratio 1∶1] | much weaker and comparable with individual enantiomers | – | – | – | – | – | – | antagonist effect in titration experiment (in words) ([1]; final concentration 50 µM, DEX 100 nM): much stronger as compared to commercial rac-KET
CC(=O)N1CCN(c2ccc(OC[C@@H]3CO[C@@](Cn4ccnc4)(c4ccc(Cl)cc4Cl)O3)cc2)CC1 [(−)-KET, (2S,4R)-(−)-KET] | only weakly transformed | – | – | – | – | – | – | increase of luciferase activity, agonist mode ([2]; up to / at 100 µM, 24 h): did not induce luciferase activity; AZ-AHR gene reporter - agonist efficacy [3]: 5,2 ± 3,2%; EC50 ([3]; 24 h, agonist mode): 2.2 µM; IC50 at 24 h [4]: 72.7 ± 27.3 µM; TAT mRNA induction (in words) [5]: strong, concentration-dependent induction; viability at 24 h, 50 µM [6]: 37%; IC50 (AZ-GR cells): 71.6 ± 27.5 µM; IC50 [7]: 17.5 ± 1.7 µM; IC50 ([1]; in the presence of DEX 100 nM): 26.7 ± 3.7 µM
C[C@@H]1C[C@H]2[C@@H]3CCC4=CC(=O)C=C[C@]4(C)[C@@]3(F)[C@@H](O)C[C@]2(C)[C@@]1(O)C(=O)CO [DEX, dexamethasone] | – | – | – | – | – | – | – | average induction of GR-dependent luciferase activity ([2]; 100 nM DEX, four passages): 70 fold
OC(Cn1cncn1)(Cn1cncn1)c1ccc(F)cc1F [Fluconazole, fluconazole] | – | 0.38 µg/mL (≈ 1.24 µM) | 1.5 µg/mL (≈ 4.9 µM) | 32 µg/mL (≈ 104 µM) | 48 µg/mL (≈ 157 µM) | 6 µg/mL (≈ 19.6 µM) | 2 µg/mL (≈ 6.53 µM) | –
CC[C@@H]([C@H](C)O)n1ncn(-c2ccc(N3CCN(c4ccc(OC[C@@H]5CO[C@@](Cn6cncn6)(c6ccc(F)cc6F)C5)cc4)CC3)cc2)c1=O [Posaconazole, posaconazole] | – | 0.094 µg/mL (≈ 0.134 µM) | 0.064 µg/mL (≈ 0.0913 µM) | 0.25 µg/mL (≈ 0.357 µM) | 0.19 µg/mL (≈ 0.271 µM) | 0.19 µg/mL (≈ 0.271 µM) | 0.032 µg/mL (≈ 0.0457 µM) | –
C[C@@H](c1ncncc1F)[C@](O)(Cn1cncn1)c1ccc(F)cc1F [Voriconazole, voriconazole] | – | 0.016 µg/mL (≈ 0.0458 µM) | 0.016 µg/mL (≈ 0.0458 µM) | 0.19 µg/mL (≈ 0.544 µM) | 0.19 µg/mL (≈ 0.544 µM) | 0.19 µg/mL (≈ 0.544 µM) | 0.023 µg/mL (≈ 0.0658 µM) | –
